Experimental data: patent US20250207124A1, “COMPOSITIONS AND METHODS FOR EXPRESSING SYNTHETIC GENETIC ELEMENTS ACROSS DIVERSE MICROORGANISMS” (priority 2022, published 2025)

System: E. coli in vitro translation reaction
Assay: PURExpress in vitro transcription/translation of a GFP reporter
Details: read-out: half-maximal inhibition (IC50) of translation of a GFP reporter; PURExpress (NEB) protein synthesis system; DNA encoding eGFP; endpoint fluorescence after 4 hours
Description: The PureExpress kit (NEB) was used in accordance with manufacture's protocol to assay for the in-vitro production of GFP. For each sample a 25 uL reaction was performed containing 100 ng DNA or 500 ng RNA template encoding GFP (transcription in this kit is via T7 RNA Polymerase), plus indicated amounts of purified compound dissolved in H2O. Reactions were loaded into a white 384 well plate and production of fluorescent GFP protein was monitored with a Synergy Ht Plate Reader (Bio-tek). Fluorescence reached an endpoint at 4 hours. To produce DNA template, a PCR product of the pT7-GFP gene was amplified (Kapa HiFi Polymerase) and purified by gel electrophoresis followed by gel purification (Qiagen). To produce RNA template, the DNA PCR product was transcribed with the HiScribe T7 High Yield RNA Synthesis kit (NEB), treated with DNasel, and purified by the Monarch RNA Purification Kit (NEB). RNA was quantified by Qubit.
To quantify IC50 values for translation inhibition activity (FIG. 14A), raw fluorescence values were linearly converted to percent activity. […] Graphpad Prism was used to plot a hyperbolic non-linear regression.

Compound: CC[C@H]1OC(=O)[C@H](C)[C@@H](O[C@H]2C[C@@](C)(OC)[C@@H](O)[C@H](C)O2)[C@H](C)[C@@H](O[C@@H]2O[C@H](C)C[C@H](N(C)C)[C@H]2O)[C@](C)(O)C[C@@H](C)C(=O)[C@H](C)[C@@H](O)[C@]1(C)O [erythromycin]
- IC50: 2000 nM
